# Structures can show the parent of a compound that is named as a salt. Where two headings read alike, the source gives them in different places.
# Key:
# [1] = tested on: NCI-H292 lung cancer cells; assay: FDA drug screening, complete media vs cholesterol-free media without statin (TABLE 1); type: cell-based, human
# [2] = tested on: NCI-H292 lung cancer cells; assay: FDA drug screening, complete media vs cholesterol-free media with simvastatin (TABLE 2); type: cell-based, human
# [3] = NCI-H292 cells, cholesterol-free media without statin
# [4] = complete vs cholesterol-free media, greater than 0 enhanced anti-cancer activity, about 0 neutral, below 0 antagonists
# [5] = NCI-H292 cells, drug in cholesterol-free media with simvastatin 0.04 μM
# [6] = NCI-H292 cells, drug in complete media
# [7] = complete media vs cholesterol-free media + simvastatin (0.04 μM), >0 enhanced anti-cancer activity, about 0 neutral, <0 antagonist
# [8] = Complete minus Cholesterol-free, greater than 0 enhanced anti-cancer activity, about 0 neutral, below 0 antagonist
# [9] = NCI-H292 cells, FDA drug library screen, cholesterol-free media without statin
# [10] = NCI-H292 cells, FDA drug library screen, complete media
# [11] = NCI-H292 cells, FDA drug library screen, cholesterol-free media with simvastatin 0.04 μM
# [12] = Complete minus Cholesterol-free, >0 enhanced anti-cancer activity, about 0 neutral, <0 antagonist
# [13] = NCI-H292 cells, cholesterol-free media without statin, FDA drug library screen
# [14] = NCI-H292 cells, complete media, FDA drug library screen
# [15] = NCI-H292 cells, FDA library drug in cholesterol-free media with simvastatin 0.04 μM
# [16] = NCI-H292 cells, FDA library drug in complete media
# [17] = complete vs cholesterol-free media, >0 enhanced anti-cancer activity, about 0 neutral, <0 antagonist
# [18] = complete media minus cholesterol-free media + simvastatin (0.04 μM), >0 enhanced anti-cancer activity, about 0 neutral, <0 antagonist
# [19] = NCI-H292 cells, cholesterol-free media with simvastatin 0.04 μM, FDA drug library screen (TABLE 2)
# [20] = NCI-H292 cells, complete media, FDA drug library screen (TABLE 2)
# [21] = Complete minus Cholesterol-free, greater than 0 enhanced anti-cancer activity, about 0 neutral, below 0 antagonists
# [22] = NCI-H292 cells in complete media
# [23] = NCI-H292 cells in cholesterol-free media without statin
Compound,"Cholesterol-free [1, 3]","Complete ([1]; NCI-H292 cells, complete media)","Difference [1, 4]","Difference [2, 7]","Cholesterol-free [1, 13]","Complete [1, 14]","Cholesterol-free media + simvastatin (0.04 μM) [2, 15]","Complete Media [2, 16]",other results
Sumatriptan (succinate),–,–,–,–,–,–,–,–,Cholesterol-free [1]: 0.9558; Complete [1]: 2.035; Difference [1]: 1.08; Cholesterol-free media + simvastatin (0.04 μM) [2]: 1.195; Complete Media [2]: 0.8897; Difference [2]: −0.31
Nafamostat (mesylate),1.215,0.8839,−0.33,−0.25,–,–,–,–,"Cholesterol-free media + simvastatin (0.04 μM) [2, 5]: 1.2; Complete Media [2, 6]: 0.9501"
CC1(C)[C@@H](O)CC[C@]2(C)[C@H]3C(=O)C=C4[C@@H]5C[C@@](C)(C(=O)O)CC[C@]5(C)CC[C@@]4(C)[C@]3(C)CC[C@@H]12 [18β-Glycyrrhetinic acid],–,–,–,−0.10,–,–,–,–,"Difference [1, 8]: −0.09; Cholesterol-free [1, 9]: 1.192; Complete [1, 10]: 1.102; Cholesterol-free media + simvastatin (0.04 μM) [2, 11]: 0.8991; Complete Media [2, 10]: 0.8018"
NC(=O)c1ccn(-c2cnc(NC[C@]3(c4ncccc4F)C[C@H](F)C3)nc2)c1 [Reldesemtiv],1.096,0.8441,–,−0.19,–,–,–,–,"Difference [1, 12]: −0.25; Cholesterol-free media + simvastatin (0.04 μM) [2, 5]: 1.122; Complete Media [2, 6]: 0.9357"
O=C1CCC[C@@H]2[C@H]3CCC[N+]4([O-])CCC[C@@H](CN12)[C@@H]34 (some centres unmarked) [Oxymatrine],–,–,–,−0.28,0.9493,0.9958,1.185,0.9014,"Difference [1, 12]: 0.05"
CC(C)C[C@H](NC(=O)[C@@H](O)[C@H](N)Cc1ccccc1)C(=O)O [Bestatin],1.255,0.8191,−0.44,−0.27,–,–,1.263,0.9917,–
Cc1c(C)c2c(c(C)c1O)CC[C@@](C)(CCC[C@H](C)CCC[C@H](C)CCCC(C)C)O2 [α-Vitamin E],1.5,1.082,−0.42,−0.59,–,–,1.493,0.9076,–
OC(CCN1CCCC1)(c1ccccc1)C1CCCCC1 (centres unmarked) [Procyclidine (hydrochloride)],1.459,0.997,−0.46,−0.16,–,–,–,–,"Cholesterol-free media + simvastatin (0.04 μM) [2, 5]: 1.237; Complete Media [2, 6]: 1.076"
CC1(C)O[C@@H]2C[C@H]3[C@@H]4C[C@H](F)C5=CC(=O)C=C[C@]5(C)[C@H]4[C@@H](O)C[C@]3(C)[C@]2(C(=O)CO)O1 [Flunisolide],–,–,–,–,0.8546,0.7935,–,–,"Difference [1, 12]: −0.06; Cholesterol-free media + simvastatin (0.04 μM) ([2]; NCI-H292 cells, cholesterol-free media with simvastatin 0.04 μM, cell growth value in FDA drug screen): 0.5373; Complete Media ([2]; NCI-H292 cells, complete media, cell growth value in FDA drug screen): 0.6048; Difference ([2]; complete media minus cholesterol-free media + simvastatin, >0 enhanced anti-cancer activity, about 0 neutral, <0 antagonist): 0.07"
CC(=O)c1ccc(O)c(C(=O)O)c1 [5-Acetylsalicylic acid],–,–,–,−0.37,0.912,1.045,1.188,0.8198,"Difference [1, 17]: 0.13"
Nc1nc(/C(=C/CC(=O)O)C(=O)N[C@@H]2C(=O)N3C(C(=O)O)=CCS[C@H]23)cs1 [Ceftibuten (dihydrate)],–,–,–,−0.16,0.6461,1.242,–,–,"Difference [1, 17]: 0.60; Cholesterol-free media + simvastatin (0.04 μM) [2, 11]: 1.353; Complete Media [2, 10]: 1.195"
CN(C)CC/C=C1/c2ccccc2Sc2ccc(Cl)cc21 [Chlorprothixene],1.606,1.176,−0.43,–,–,–,–,–,"Cholesterol-free media + simvastatin (0.04 μM) [2, 11]: 2.022; Difference [2, 18]: −0.96"
COc1ccccc1OCC(O)CN1CCN(CC(=O)Nc2c(C)cccc2C)CC1 (centres unmarked) [Ranolazine],1.774,1.359,−0.41,−0.15,–,–,–,–,"Cholesterol-free media + simvastatin (0.04 μM) [2, 11]: 1.311; Complete Media [2, 10]: 1.162"
Cc1ccc(C(=O)c2cc(O)c(O)c([N+](=O)[O-])c2)cc1 [Tolcapone],–,–,–,−0.21,–,–,–,–,"Difference [1, 8]: −0.19; Cholesterol-free [1, 9]: 1.149; Complete [1, 10]: 0.9627; Cholesterol-free media + simvastatin (0.04 μM) [2, 5]: 1.114; Complete Media [2, 6]: 0.8994"
N#CC(c1ccc(Cl)cc1)c1c(Cl)cc(-n2ncc(=O)[nH]c2=O)cc1Cl (centres unmarked) [Diclazuril],–,–,–,−0.08,0.7362,1.131,–,–,"Difference [1, 17]: 0.39; Cholesterol-free media + simvastatin (0.04 μM) [2, 11]: 1.052; Complete Media [2, 10]: 0.9766"
Cc1ncc([N+](=O)[O-])n1C [Dimetridazole],1.219,0.8738,−0.35,−0.71,–,–,1.602,0.8915,–
CC[C@H](C)[C@H](N)C(=O)O [L-Isoleucine],–,–,–,–,1.023,1.082,–,–,"Difference [1, 12]: 0.06; Cholesterol-free media + simvastatin (0.04 μM) [2, 11]: 2.302; Difference [2, 18]: −1.28"
C=C[C@]1(C)C[C@@H](OC(=O)CS[C@@H]2C[C@H]3CC[C@@H](C2)N3C)[C@]2(C)[C@H](C)CC[C@]3(CCC(=O)[C@H]32)[C@@H](C)[C@@H]1O [Retapamulin],–,–,–,–,–,–,–,–,"Difference [1, 8]: −0.18; Cholesterol-free [1, 9]: 1.002; Complete [1, 10]: 0.8221; Cholesterol-free media + simvastatin (0.04 μM) [2, 19]: 1.667; Complete Media [2, 20]: 1.638; Difference [2, 18]: −0.03"
COc1ccc(Cl)cc1C(=O)NCCc1ccc(S(=O)(=O)NC(=O)NC2CCCCC2)cc1 [Glibenclamide],–,–,–,−0.16,–,–,–,–,"Difference [1, 21]: −0.64; Complete [1, 22]: 0.9798; Cholesterol-free media + simvastatin (0.04 μM) [2, 11]: 1.112; Complete Media [2, 10]: 0.9567"
CCn1cc(C(=O)O)c(=O)c2cc(F)c(N3CCNC(C)C3)c(F)c21 (centres unmarked) [Lomefloxacin (hydrochloride)],1.531,–,−0.37,−0.72,–,–,1.657,0.934,–
CCC(=O)c1c(O)cc(O)cc1O [Flopropione],–,–,–,–,1.019,0.9515,–,–,"Difference [1, 12]: −0.07; Cholesterol-free media + simvastatin (0.04 μM) [2, 19]: 1.103; Complete Media [2, 20]: 1.044; Difference [2, 18]: −0.06"
C[C@@H](CN1CC(=O)NC(=O)C1)N1CC(=O)NC(=O)C1 [Dexrazoxane (hydrochloride)],–,–,–,−0.28,0.9516,0.9799,1.279,1.002,"Difference [1, 12]: 0.03"
CCCN[C@@H]1CCc2nc(N)sc2C1 [Dexpramipexole (dihydrochloride)],0.9915,0.5799,−0.41,–,–,–,–,–,"Cholesterol-free media + simvastatin (0.04 μM) [2, 19]: 1.099; Complete Media [2, 20]: 1.11; Difference [2, 18]: 0.01"
CCc1c(Cl)c(O)c(Cl)c(O)c1C(=O)O[C@H]1[C@H](O)[C@H](OC)[C@H](OC/C2=C\C=C\C[C@H](O)/C(C)=C/[C@H](CC)[C@@H](O[C@@H]3OC(C)(C)[C@@H](OC(=O)C(C)C)[C@H](O)[C@@H]3O)/C(C)=C/C(C)=C/C[C@@H]([C@@H](C)O)OC2=O)O[C@@H]1C [Fidaxomicin],–,–,–,−0.27,–,–,1.494,1.227,"Difference [1, 21]: −0.71; Cholesterol-free [1, 23]: 1.405; Complete [1, 22]: 0.6951"
N#CC[C@H](C1CCCC1)n1cc(-c2ncnc3[nH]ccc23)cn1 [Ruxolitinib],–,–,–,−0.08,0.6188,0.6101,–,–,"Difference [1, 12]: −0.01; Cholesterol-free media + simvastatin (0.04 μM) [2, 11]: 0.6455; Complete Media [2, 10]: 0.5664"
Cc1nnc(SCC2=C(C(=O)[O-])N3C(=O)[C@@H](NC(=O)Cn4cnnn4)[C@H]3SC2)s1.[Na+] [Cefazolin (sodium)],–,–,–,−0.30,–,–,1.378,1.076,"Difference [1, 21]: −0.79; Cholesterol-free [1, 23]: 1.776; Complete [1, 22]: 0.9866"
O=C1CCc2ccc(OCCCCN3CCN(c4cccc(Cl)c4Cl)CC3)cc2N1 [Aripiprazole],–,–,–,−0.24,–,–,–,–,"Difference [1, 8]: −0.16; Cholesterol-free [1, 9]: 0.9968; Complete [1, 10]: 0.833; Cholesterol-free media + simvastatin (0.04 μM) [2, 5]: 1.264; Complete Media [2, 6]: 1.028"
CC(C)n1nccc1-c1ncccc1COc1cccc(O)c1C=O [Voxelotor],1.146,0.7013,−0.44,−0.38,–,–,1.853,1.475,–
Pefloxacin (mesylate),1.183,0.8627,−0.32,−0.16,–,–,–,–,"Cholesterol-free media + simvastatin (0.04 μM) [2, 5]: 1.02; Complete Media [2, 6]: 0.8577"

# From US20250144067A1, “PERSONALIZED STARVATION THERAPY FOR CANCER” (Faeth Therapeutics, Inc., priority 2021, published 2025)
